Assay results taken from patent publication US6087119A, “Method for determining the catalytic activity of factor IXa” (Roche Diagnostics GmbH, priority 1996, dated 2000).
Square brackets hold non-standard residues; d marks the D form. Peptide text beside a SMILES is read from it. * marks the point of attachment. pNA = O=[N+]([O-])c1ccc(N*)cc1; dNle = CCCC[C@@H](N)C(=O)O; Moc = COC(=O)*

Assays:
Type in all cases: biochemical
Parameters in all cases: coding for the FIX protease domain from amino acid position 181 to 415; Met (ATG start codon) (N); made in house
rFIXa (human) [1] = target: T1, rFIXa (human) (Homo sapiens, UniProt P00740); test: Influence of alcohols and organic solvents on the activity of rFIXa, chromogenic peptide substrates; conditions: for V/V0: MeSO2-D-HHT-Gly-Arg-pNA 1.02 mmol/l, 0.48 μmol/l rFIXa; for V/V0 / effect on the activity of rFIXa (in words): pH 7.4; for effect on the activity of rFIXa (in words): additive 0-50%, MeSO2-D-HHT-Gly-Arg-pNA
Protocol: The reaction was started by adding FIXa.
MeSO2 -D-HHT-Gly-Arg-pNA→MeSO2 -D-HHT-Gly-Arg+pNA measurement signal: pNA
(§1) 0.48 μmol/l rFIXa (human)
0-50% (alcohol or organic solvent)
The ratio V/V0 was calculated to illustrate the stimulation of the catalytic activity of rFIXa.
V0, reaction rate without additives
V, reaction rate in the presence of additives
Test Mixture Chromogenic (Concentration in the Test)
Target sequence in this assay (P00740 227-461 limits assumed): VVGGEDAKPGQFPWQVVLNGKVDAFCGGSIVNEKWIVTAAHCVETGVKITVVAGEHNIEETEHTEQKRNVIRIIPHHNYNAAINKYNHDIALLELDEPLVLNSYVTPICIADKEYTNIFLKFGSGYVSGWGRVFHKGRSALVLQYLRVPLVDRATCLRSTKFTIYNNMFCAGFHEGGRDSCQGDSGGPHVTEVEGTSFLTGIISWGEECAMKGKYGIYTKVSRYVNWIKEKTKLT
Target sequence in this assay (P00740 131-226 partner limits assumed): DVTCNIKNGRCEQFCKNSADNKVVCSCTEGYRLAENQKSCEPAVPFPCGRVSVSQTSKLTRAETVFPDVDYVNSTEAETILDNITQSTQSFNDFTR

rFIXa (human) [2] = target: T1, rFIXa (human); test: Kinetics of cleavage of chromogenic peptide substrates by rFIXa with ethylene glycol (Lineweaver Burk); conditions: substrate MOC-D-Nle-Gly-Arg-pNA, rFIXa 0.48 μmol/l, pH 7.4
Protocol: MeSO2 -D-HHT-Gly-Arg-pNA (0.102-1.02 mmol/l)
as §1
Target sequence in this assay (P00740 227-461): as the sequence (P00740 227-461 limits assumed) above
Target sequence in this assay (P00740 131-226): as the sequence (P00740 131-226 partner limits assumed) above
MOC-D-Nle-Gly-Arg-pNA (0.102-1.02 mmol/l)
MeSO2 -D-CHG-Gly-Arg-pNA (0.102-1.02 mmol/l)
0.28 μmol/l rFIXa (human)
The kinetic constants (Kcat /Km) were determined graphically according to Lineweaver Burk (Km and Kcat cannot be determined separately since the straight lines go through the origin).

rFIXa (human) [3] = target: T1, rFIXa (human); test: Influence of known protease inhibitors on the activity of rFIXa
Protocol: Specific FIXa inhibitors can be identified by the inhibition of FIXa activity. For this purpose the FIXa activity is determined with a substrate of the R-D-Xxx-Gly-Arg-pNA type (Xxx=hydrophobic amino acid) in the absence and presence of the substance to be tested or of a substance mixture and the percentage inhibition is calculated from the quotients. The inhibition constant Ki is determined from the inhibition kinetics. The measurement signal is amplified by the presence of high concentrations of certain alcohols (preferably ethylene glycol).
200 μl buffer (100 mmol/l Tris-HCl, 100 mmol/l NaCl, 5 mmol/l CaCl2, 20-40% alcohol, pH 7-9) the buffer contains the inhibitor at various concentrations […]
The reaction can also be terminated after 5-10 min by stopping with acetic acid (25 μl, 50%), the absorbance is determined at 405 nm against a reagent blank.
Influence of Known Protease Inhibitors on the Activity of rFIXa Using Different pHs, Alcohols and Alcohol Concentrations 42 mmol/l Tris-HCl, pH 7.4 or 8.5 substrate MeSO2 -D-CHG-Gly-Arg-pNA (1.02 mmol/l) […]
inhibitor at stepped concentrations (4.1-163 μmol/l)
Known synthetic inhibitors of the 3-amidinophenylalanine type were used as inhibitors (Sturzebecher et al, J. Enzyme. Inhibition 9 (1995) 87 and WO 92/08709) (1991)). The inhibitory effect was examined at a low and at a high alcohol concentration as an example.
Target sequence in this assay (P00740 227-461 limits assumed): as the sequence (P00740 227-461 limits assumed) above
Target sequence in this assay (P00740 131-226 limits assumed): as the sequence (P00740 131-226 partner limits assumed) above

CC#N [Acetonitrile]
V/V0 (rFIXa (human) [1]; 8% additive): 0.828 | V/V0 (rFIXa (human) [1]; 16% additive): 0.314 | V/V0 (rFIXa (human) [1]; 25% additive): 0 | V/V0 (rFIXa (human) [1]; 33% additive): 0 | V/V0 (rFIXa (human) [1]; 41% additive): 0 | V/V0 (rFIXa (human) [1]; 50% additive): 0 | effect on the activity of rFIXa (in words) (rFIXa (human) [1]): inactivate the enzyme

CN(C)C=O [DMF, dimethylformamide]
V/V0 (rFIXa (human) [1]; 8% additive): 0.649 | V/V0 (rFIXa (human) [1]; 16% additive): 0.514 | V/V0 (rFIXa (human) [1]; 25% additive): 0 | V/V0 (rFIXa (human) [1]; 33% additive): 0 | V/V0 (rFIXa (human) [1]; 41% additive): 0 | V/V0 (rFIXa (human) [1]; 50% additive): 0 | effect on the activity of rFIXa (in words) (rFIXa (human) [1]): inactivate the enzyme

C[S+](C)[O-] [DMSO, dimethylsulfoxide]
V/V0 (rFIXa (human) [1]; 8% additive): 1.27 | V/V0 (rFIXa (human) [1]; 16% additive): 1.45 | V/V0 (rFIXa (human) [1]; 25% additive): 1.59 | V/V0 (rFIXa (human) [1]; 33% additive): 1.43 | V/V0 (rFIXa (human) [1]; 41% additive): 0.922 | V/V0 (rFIXa (human) [1]; 50% additive): 0.157 | effect on the activity of rFIXa (in words) (rFIXa (human) [1]): does not inhibit rFIXa up to 30%

OCC(O)CO [Glycerol]
V/V0 (rFIXa (human) [1]; 8% additive): 1.12 | V/V0 (rFIXa (human) [1]; 16% additive): 1.64 | V/V0 (rFIXa (human) [1]; 25% additive): 2.47 | V/V0 (rFIXa (human) [1]; 33% additive): 3.38 | V/V0 (rFIXa (human) [1]; 41% additive): 4.82 | V/V0 (rFIXa (human) [1]; 50% additive): 5.91 | effect on the activity of rFIXa (in words) (rFIXa (human) [1]): does not stimulate until higher concentrations (25-50%)

CCCC[C@@H](NC(=O)OC)C(=O)NCC(=O)N[C@@H](CCCNC(=N)N)C(=O)Nc1ccc([N+](=O)[O-])cc1 [MOC--D--Nle--Gly--Arg--pNA, MOC-D-Nle-Gly-Arg-pNA] (Moc-[dNle]-Gly-Arg-pNA)
kkat /Km (rFIXa (human) [2]; 16% ethylene glycol): 326 M⁻¹ s⁻¹ | kkat /Km (rFIXa (human) [2]; 25% ethylene glycol): 565 M⁻¹ s⁻¹ | kkat /Km (rFIXa (human) [2]; 33% ethylene glycol): 552 M⁻¹ s⁻¹ | kkat /Km (rFIXa (human) [2]; 41% ethylene glycol): 360 M⁻¹ s⁻¹ | kkat /Km (rFIXa (human) [2]; 50% ethylene glycol): 148 M⁻¹ s⁻¹

CO [Methanol]
V/V0 (rFIXa (human) [1]; 8% additive): 2.16 | V/V0 (rFIXa (human) [1]; 16% additive): 3.46 | V/V0 (rFIXa (human) [1]; 25% additive): 3.71 | V/V0 (rFIXa (human) [1]; 33% additive): 2.83 | V/V0 (rFIXa (human) [1]; 41% additive): 1.55 | V/V0 (rFIXa (human) [1]; 50% additive): 0.588 | stimulation of the activity of rFIXa (rFIXa (human) [1]; concentration range of 15-40%): 5-15 fold

CC(C)O [i-Propanol]
V/V0 (rFIXa (human) [1]; 8% additive): 2.17 | V/V0 (rFIXa (human) [1]; 16% additive): 2.48 | V/V0 (rFIXa (human) [1]; 25% additive): 1.18 | V/V0 (rFIXa (human) [1]; 33% additive): 0.346 | V/V0 (rFIXa (human) [1]; 41% additive): 0.164 | V/V0 (rFIXa (human) [1]; 50% additive): 0.164

OC[C@@H](O)[C@@H](O)CO [m-Erythritol]
V/V0 (rFIXa (human) [1]; 8 g/100 ml additive): 1.16 | V/V0 (rFIXa (human) [1]; 16 g/100 ml additive): 1.35 | V/V0 (rFIXa (human) [1]; 25 g/100 ml additive): 1.49 | V/V0 (rFIXa (human) [1]; 33 g/100 ml additive): 1.56 | V/V0 (rFIXa (human) [1]; 41 g/100 ml additive): 1.64 | V/V0 (rFIXa (human) [1]; 50 g/100 ml additive): 1.77 | effect on the activity of rFIXa (in words) (rFIXa (human) [1]): only has a slight effect

CCCO [n-Propanol]
V/V0 (rFIXa (human) [1]; 8% additive): 3.43 | V/V0 (rFIXa (human) [1]; 16% additive): 2.26 | V/V0 (rFIXa (human) [1]; 25% additive): 0.339 | V/V0 (rFIXa (human) [1]; 33% additive): 0.186 | V/V0 (rFIXa (human) [1]; 41% additive): 0.056 | V/V0 (rFIXa (human) [1]; 50% additive): 0.056

CC(C)(C)O [t-Butanol]
V/V0 (rFIXa (human) [1]; 8% additive): 2.05 | V/V0 (rFIXa (human) [1]; 16% additive): 1.67 | V/V0 (rFIXa (human) [1]; 25% additive): 0.702 | V/V0 (rFIXa (human) [1]; 33% additive): 0.368 | V/V0 (rFIXa (human) [1]; 41% additive): 0.263 | V/V0 (rFIXa (human) [1]; 50% additive): 0.263

N=C(N)c1cccc(CC(NS(=O)(=O)c2ccc3ccccc3c2)C(=O)N2Cc3ccccc3CC2C(=O)O)c1 (centres unmarked) [βNAPS-(3-Am)Phe-TIC-OH, Nα-(2-naphthylsulfonyl)-3-amidino-(D,L)-phenylalanine-1,2,3,4-tetrahydroisoquinoline-3-carboxylic acid]
Inhibition of the activity of factor IXa (in %) (rFIXa (human) [3]; inhibitor 4.1 μmol/l, pH 7.4, 4.1% ethanol, 0.57 μmol/l rFIXa): 97.2% | Inhibition of the activity of factor IXa (in %) (rFIXa (human) [3]; inhibitor 4.1 μmol/l, pH 7.4, 33% ethylene glycol, 0.057 μmol/l rFIXa): 100% | Inhibition of the activity of factor IXa (in %) (rFIXa (human) [3]; inhibitor 4.1 μmol/l, pH 8.5, 4.1% ethanol, […] rFIXa): 100% | Inhibition of the activity of factor IXa (in %) (rFIXa (human) [3]; inhibitor 4.1 μmol/l, pH 8.5, 33% ethylene glycol, […] rFIXa): 100% | Inhibition of the activity of factor IXa (in %) (rFIXa (human) [3]; inhibitor 8.2 μmol/l, pH 7.4, 4.1% ethanol, 0.57 μmol/l rFIXa): 97.2% | Inhibition of the activity of factor IXa (in %) (rFIXa (human) [3]; inhibitor 8.2 μmol/l, pH 7.4, 33% ethylene glycol, 0.057 μmol/l rFIXa): 100% | Inhibition of the activity of factor IXa (in %) (rFIXa (human) [3]; inhibitor 8.2 μmol/l, pH 8.5, 4.1% ethanol, […] rFIXa): 96.2% | Inhibition of the activity of factor IXa (in %) (rFIXa (human) [3]; inhibitor 8.2 μmol/l, pH 8.5, 33% ethylene glycol, […] rFIXa): 97.9% | Inhibition of the activity of factor IXa (in %) (rFIXa (human) [3]; inhibitor 16.3 μmol/l, pH 7.4, 4.1% ethanol, 0.57 μmol/l rFIXa): 88.2% | Inhibition of the activity of factor IXa (in %) (rFIXa (human) [3]; inhibitor 16.3 μmol/l, pH 7.4, 33% ethylene glycol, 0.057 μmol/l rFIXa): 85.4% | Inhibition of the activity of factor IXa (in %) (rFIXa (human) [3]; inhibitor 16.3 μmol/l, pH 8.5, 4.1% ethanol, […] rFIXa): 86.2% | Inhibition of the activity of factor IXa (in %) (rFIXa (human) [3]; inhibitor 16.3 μmol/l, pH 8.5, 33% ethylene glycol, […] rFIXa): 88.4% | Inhibition of the activity of factor IXa (in %) (rFIXa (human) [3]; inhibitor 40.8 μmol/l, pH 7.4, 4.1% ethanol, 0.57 μmol/l rFIXa): 75.4% | Inhibition of the activity of factor IXa (in %) (rFIXa (human) [3]; inhibitor 40.8 μmol/l, pH 7.4, 33% ethylene glycol, 0.057 μmol/l rFIXa): 62.6% | Inhibition of the activity of factor IXa (in %) (rFIXa (human) [3]; inhibitor 40.8 μmol/l, pH 8.5, 4.1% ethanol, […] rFIXa): 77.5% | Inhibition of the activity of factor IXa (in %) (rFIXa (human) [3]; inhibitor 40.8 μmol/l, pH 8.5, 33% ethylene glycol, […] rFIXa): 78.4% | Inhibition of the activity of factor IXa (in %) (rFIXa (human) [3]; inhibitor 81.6 μmol/l, pH 7.4, 4.1% ethanol, 0.57 μmol/l rFIXa): 57.0% | Inhibition of the activity of factor IXa (in %) (rFIXa (human) [3]; inhibitor 81.6 μmol/l, pH 7.4, 33% ethylene glycol, 0.057 μmol/l rFIXa): 41.0% | Inhibition of the activity of factor IXa (in %) (rFIXa (human) [3]; inhibitor 81.6 μmol/l, pH 8.5, 4.1% ethanol, […] rFIXa): 63.8% | Inhibition of the activity of factor IXa (in %) (rFIXa (human) [3]; inhibitor 81.6 μmol/l, pH 8.5, 33% ethylene glycol, […] rFIXa): 66.0% | Inhibition of the activity of factor IXa (in %) (rFIXa (human) [3]; inhibitor 163 μmol/l, pH 7.4, 4.1% ethanol, 0.57 μmol/l rFIXa): 25.7% | Inhibition of the activity of factor IXa (in %) (rFIXa (human) [3]; inhibitor 163 μmol/l, pH 7.4, 33% ethylene glycol, 0.057 μmol/l rFIXa): 28.9% | Inhibition of the activity of factor IXa (in %) (rFIXa (human) [3]; inhibitor 163 μmol/l, pH 8.5, 4.1% ethanol, […] rFIXa): 48.8% | Inhibition of the activity of factor IXa (in %) (rFIXa (human) [3]; inhibitor 163 μmol/l, pH 8.5, 33% ethylene glycol, […] rFIXa): 45.4%
